Test results as given in patent US20170334899A1, “AMINO-SUBSTITUTED ISOTHIAZOLES” (Bayer Pharma Aktiengesellschaft, priority 2014, published 2017).

Molecular target: T1, human kinase Mps-1 (Homo sapiens, UniProt P33981)
T1 construct: N-terminally GST-tagged human full length recombinant Mps-1 kinase; GST (N); purchased Invitrogen, Karslruhe, Germany PV4071
T1 sequence (P33981 1-857): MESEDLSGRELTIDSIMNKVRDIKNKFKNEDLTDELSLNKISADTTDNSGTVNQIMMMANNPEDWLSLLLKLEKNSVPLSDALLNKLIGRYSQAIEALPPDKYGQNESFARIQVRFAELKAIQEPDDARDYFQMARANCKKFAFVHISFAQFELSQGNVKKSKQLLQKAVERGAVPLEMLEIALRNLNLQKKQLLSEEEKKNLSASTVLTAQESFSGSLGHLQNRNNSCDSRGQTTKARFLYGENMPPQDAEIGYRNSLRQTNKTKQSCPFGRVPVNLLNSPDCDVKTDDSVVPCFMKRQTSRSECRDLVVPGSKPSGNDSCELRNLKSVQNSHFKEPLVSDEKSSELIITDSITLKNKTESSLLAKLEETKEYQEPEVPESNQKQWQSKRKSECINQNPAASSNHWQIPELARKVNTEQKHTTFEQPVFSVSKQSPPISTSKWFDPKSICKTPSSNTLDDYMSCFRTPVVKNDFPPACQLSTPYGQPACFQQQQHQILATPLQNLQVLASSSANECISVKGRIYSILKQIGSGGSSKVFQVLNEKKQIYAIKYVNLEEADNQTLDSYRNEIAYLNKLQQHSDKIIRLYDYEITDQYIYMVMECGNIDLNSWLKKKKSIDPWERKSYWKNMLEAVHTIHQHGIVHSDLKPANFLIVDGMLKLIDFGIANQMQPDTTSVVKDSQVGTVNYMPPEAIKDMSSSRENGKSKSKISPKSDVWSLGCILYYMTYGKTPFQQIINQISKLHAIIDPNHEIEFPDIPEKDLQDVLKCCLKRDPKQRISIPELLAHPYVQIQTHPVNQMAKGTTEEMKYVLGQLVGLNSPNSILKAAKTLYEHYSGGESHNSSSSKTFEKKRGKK
Experiment: Mps-1 kinase assay (TR-FRET)
Type: biochemical
Details: Mps-1 TR-FRET kinase assay; avg; read-out: Mps1 avg (IC50 [mol/l])
Outline: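 GST-tagged full-length recombinant human Mps-1 (~0.5 nM) pre-incubated 15 min with compound, then reacted 60 min at 22 °C with 10 μM ATP and 1 μM biotinylated peptide in Hepes pH 7.7 buffer. EDTA-stopped; TR-FRET (Eu anti-phospho-Ser/Thr to SA-XLent) 665/620 nm ratio normalised to no-inhibitor and no-enzyme controls.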

SMILES	IC50
Cc1nsc(Nc2cnc(C(F)(F)F)cn2)c1C(=O)Nc1ccc(OCC2CCCN(CCC(F)(F)F)C2)nc1 (stereo not drawn) [Example 328, 3-methyl-5-{[5-(trifluoromethyl)pyrazin-2-yl]amino}-N-(6-{[1-(3,3,3-trifluoropropyl)piperidin-3-yl]methoxy}pyridin-3-yl)-1,2-thiazole-4-carboxamide]	≥ 20 µM
Cc1nsc(Nc2cnc(C(F)(F)F)cn2)c1C(=O)Nc1ccc(OC2CCCN(CCF)C2)nc1 (stereo not drawn) [Example 329, N-(6-{[1-(2-fluoroethyl)piperidin-3-yl]oxy}pyridin-3-yl)-3-methyl-5-{[5-(trifluoromethyl)pyrazin-2-yl]amino}-1,2-thiazole-4-carboxamide]	≥ 20 µM
Cc1nsc(Nc2cnc(C(F)(F)F)cn2)c1C(=O)Nc1ccc(OC2CCCN(CC(F)F)C2)nc1 (stereo not drawn) [Example 330, N-(6-{[1-(2,2-difluoroethyl)piperidin-3-yl]oxy}pyridin-3-yl)-3-methyl-5-{[5-(trifluoromethyl)pyrazin-2-yl]amino}-1,2-thiazole-4-carboxamide]	≥ 20 µM
Cc1nsc(Nc2cnc(C(F)(F)F)cn2)c1C(=O)Nc1ccc(OC2CCCN(CCC(F)(F)F)C2)nc1 (stereo not drawn) [Example 332, 3-methyl-5-{[5-(trifluoromethyl)pyrazin-2-yl]amino}-N-(6-{[1-(3,3,3-trifluoropropyl)piperidin-3-yl]oxy}pyridin-3-yl)-1,2-thiazole-4-carboxamide]	≥ 20 µM
Cc1nsc(Nc2cnc(C(F)(F)F)cn2)c1C(=O)Nc1ccc(OC2CCCN(C(CF)CF)C2)nc1 (stereo not drawn) [Example 333, N-(6-{[1-(1,3-difluoropropan-2-yl)piperidin-3-yl]oxy}pyridin-3-yl)-3-methyl-5-{[5-(trifluoromethyl)pyrazin-2-yl]amino}-1,2-thiazole-4-carboxamide]	≥ 20 µM
Cc1nsc(Nc2cnc(C(F)(F)F)cn2)c1C(=O)Nc1ccc(F)c(OCC2CCCN(CC(F)F)C2)c1 (stereo not drawn) [Example 334, N-(3-{[1-(2,2-difluoroethyl)piperidin-3-yl]methoxy}-4-fluorophenyl)-3-methyl-5-{[5-(trifluoromethyl)pyrazin-2-yl]amino}-1,2-thiazole-4-carboxamide]	≥ 20 µM
Cc1nsc(Nc2cnc(C(F)(F)F)cn2)c1C(=O)Nc1ccc(F)c(OCC2CCCN(CCF)C2)c1 (stereo not drawn) [Example 336, N-(4-fluoro-3-{[1-(2-fluoroethyl)piperidin-3-yl]methoxy}phenyl)-3-methyl-5-{[5-(trifluoromethyl)pyrazin-2-yl]amino}-1,2-thiazole-4-carboxamide]	≥ 20 µM
Cc1nsc(Nc2cnc(C(F)(F)F)cn2)c1C(=O)Nc1ccc(F)c(OCC2CCCN(CC(F)(F)F)C2)c1 (stereo not drawn) [Example 337, N-(4-fluoro-3-{[1-(2,2,2-trifluoroethyl)piperidin-3-yl]methoxy}phenyl)-3-methyl-5-{[5-(trifluoromethyl)pyrazin-2-yl]amino}-1,2-thiazole-4-carboxamide]	≥ 20 µM
Cc1nsc(Nc2cnc(C(F)(F)F)cn2)c1C(=O)Nc1ccc(F)c(OCC2CCCN(CCC(F)(F)F)C2)c1 (stereo not drawn) [Example 338, N-(4-fluoro-3-{[1-(3,3,3-trifluoropropyl)piperidin-3-yl]methoxy}phenyl)-3-methyl-5-{[5-(trifluoromethyl)pyrazin-2-yl]amino}-1,2-thiazole-4-carboxamide]	≥ 20 µM
Cc1nsc(Nc2cncc(C(F)(F)F)n2)c1C(=O)Nc1ccc(F)c(OC2CCN(CCC(F)(F)F)CC2)c1 [Example 343, N-(4-fluoro-3-{[1-(3,3,3-trifluoropropyl)piperidin-4-yl]oxy}phenyl)-3-methyl-5-{[6-(trifluoromethyl)pyrazin-2-yl]amino}-1,2-thiazole-4-carboxamide]	≥ 20 µM
Cc1nsc(Nc2cnc(C(F)(F)F)cn2)c1C(=O)Nc1ccc(OCC2CCN(CCF)CC2)nc1 [Example 344, N-(6-{[1-(2-fluoroethyl)piperidin-4-yl]methoxy}pyridin-3-yl)-3-methyl-5-{[5-(trifluoromethyl)pyrazin-2-yl]amino}-1,2-thiazole-4-carboxamide]	> 20 µM
Cc1nsc(Nc2cnc(C(F)(F)F)cn2)c1C(=O)Nc1ccc(OCC2CCN(CC(F)F)CC2)nc1 [Example 345, N-(6-{[1-(2,2-difluoroethyl)piperidin-4-yl]methoxy}pyridin-3-yl)-3-methyl-5-{[5-(trifluoromethyl)pyrazin-2-yl]amino}-1,2-thiazole-4-carboxamide]	> 20 µM
Cc1nsc(Nc2cnc(C(F)(F)F)cn2)c1C(=O)Nc1ccc(OCC2CCN(CC(F)(F)F)CC2)nc1 [Example 346, 3-methyl-N-(6-{[1-(2,2,2-trifluoroethyl)piperidin-4-yl]methoxy}pyridin-3-yl)-5-{[5-(trifluoromethyl)pyrazin-2-yl]amino}-1,2-thiazole-4-carboxamide]	> 20 µM
Cc1nsc(Nc2cnc(C(F)(F)F)cn2)c1C(=O)Nc1ccc(OCC2CCN(CCC(F)(F)F)CC2)nc1 [Example 347, 3-methyl-5-{[5-(trifluoromethyl)pyrazin-2-yl]amino}-N-(6-{[1-(3,3,3-trifluoropropyl)piperidin-4-yl]methoxy}pyridin-3-yl)-1,2-thiazole-4-carboxamide]	> 20 µM
Cc1nsc(Nc2cnc(C(F)(F)F)cn2)c1C(=O)Nc1ccc(OCCN(C)CCF)nc1 [Example 348, N-(6-{2-[(2-fluoroethyl)(methyl)amino]ethoxy}pyridin-3-yl)-3-methyl-5-{[5-(trifluoromethyl)pyrazin-2-yl]amino}-1,2-thiazole-4-carboxamide]	≥ 20 µM
Cc1nsc(Nc2cnc(C(F)(F)F)cn2)c1C(=O)Nc1ccc(OCCN(C)CC(F)F)nc1 [Example 349, N-(6-{2-[(2,2-difluoroethyl)(methyl)amino]ethoxy}pyridin-3-yl)-3-methyl-5-{[5-(trifluoromethyl)pyrazin-2-yl]amino}-1,2-thiazole-4-carboxamide]	≥ 20 µM
Cc1nsc(Nc2cnc(C(F)(F)F)cn2)c1C(=O)Nc1ccc(OCCN(C)CC(F)(F)F)nc1 [Example 350, 3-methyl-N-(6-{2-[methyl(2,2,2-trifluoroethyl)amino]ethoxy}pyridin-3-yl)-5-{[5-(trifluoromethyl)pyrazin-2-yl]amino}-1,2-thiazole-4-carboxamide]	≥ 20 µM
Cc1nsc(Nc2cnc(C(F)(F)F)cn2)c1C(=O)Nc1ccc(OCCN(C)CCC(F)(F)F)nc1 [Example 351, 3-methyl-N-(6-{2-[methyl(3,3,3-trifluoropropyl)amino]ethoxy}pyridin-3-yl)-5-{[5-(trifluoromethyl)pyrazin-2-yl]amino}-1,2-thiazole-4-carboxamide]	> 20 µM
Cc1nsc(Nc2cnc(C(F)(F)F)cn2)c1C(=O)Nc1ccc(OCCCN(C)CCF)nc1 [Example 352, N-(6-{3-[(2-fluoroethyl)(methyl)amino]propoxy}pyridin-3-yl)-3-methyl-5-{[5-(trifluoromethyl)pyrazin-2-yl]amino}-1,2-thiazole-4-carboxamide]	> 20 µM
Cc1nsc(Nc2cnc(C(F)(F)F)cn2)c1C(=O)Nc1ccc(OCCCN(C)CC(F)F)nc1 [Example 353, N-(6-{3-[(2,2-difluoroethyl)(methyl)amino]propoxy}pyridin-3-yl)-3-methyl-5-{[5-(trifluoromethyl)pyrazin-2-yl]amino}-1,2-thiazole-4-carboxamide]	19 µM
Cc1nsc(Nc2cnc(C(F)(F)F)cn2)c1C(=O)Nc1ccc(OCCCN(C)CC(F)(F)F)nc1 [Example 354, 3-methyl-N-(6-{3-[methyl(2,2,2-trifluoroethyl)amino]propoxy}pyridin-3-yl)-5-{[5-(trifluoromethyl)pyrazin-2-yl]amino}-1,2-thiazole-4-carboxamide]	≥ 20 µM
Cc1nsc(Nc2cnc(C(F)(F)F)cn2)c1C(=O)Nc1ccc(OCCCN(C)CCC(F)(F)F)nc1 [Example 355, 3-methyl-N-(6-{3-[methyl(3,3,3-trifluoropropyl)amino]propoxy}pyridin-3-yl)-5-{[5-(trifluoromethyl)pyrazin-2-yl]amino}-1,2-thiazole-4-carboxamide]	≥ 20 µM
Cc1nsc(Nc2cnc(C(F)(F)F)cn2)c1C(=O)Nc1ccc(CCC2CCN(CC(F)F)CC2)nc1 [Example 356, N-(6-{2-[1-(2,2-difluoroethyl)piperidin-4-yl]ethyl}pyridin-3-yl)-3-methyl-5-{[5-(trifluoromethyl)pyrazin-2-yl]amino}-1,2-thiazole-4-carboxamide]	> 20 µM
Cc1nsc(Nc2cnc(C(F)(F)F)cn2)c1C(=O)Nc1ccc(C2CCN(CC(F)F)CC2)nc1 [Example 357, N-{6-[1-(2,2-difluoroethyl)piperidin-4 yl]pyridin-3-yl}-3-methyl-5-{[5-(trifluoromethyl)pyrazin-2-yl]amino}-1,2-thiazole-4-carboxamide]	> 20 µM
